Data: BigSolDB 2.1

O=C(N[C@H](Cc1c[nH]c2ccccc12)C(=O)O)OCC1c2ccccc2-c2ccccc21
Conditions	solubility (mole fraction)
in acetone, 283.15 K	0.0377
in acetone, 288.15 K	0.0387
in acetone, 293.15 K	0.0407
in acetone, 298.15 K	0.0432
in acetone, 303.15 K	0.0456
in acetone, 308.15 K	0.0483
in acetone, 313.15 K	0.0533
in acetone, 318.15 K	0.059
in acetone, 323.15 K	0.0651
in acetonitrile, 283.15 K	0.00128
in acetonitrile, 288.15 K	0.0015
in acetonitrile, 293.15 K	0.00164
in acetonitrile, 298.15 K	0.00197
in acetonitrile, 303.15 K	0.00229
in acetonitrile, 308.15 K	0.00296
in acetonitrile, 313.15 K	0.00382
in acetonitrile, 318.15 K	0.00498
in acetonitrile, 323.15 K	0.0067
in ethanol, 283.15 K	0.00439
in ethanol, 288.15 K	0.00448
in ethanol, 293.15 K	0.00492
in ethanol, 298.15 K	0.00538
in ethanol, 303.15 K	0.00604
in ethanol, 308.15 K	0.00688
in ethanol, 313.15 K	0.00763
in ethanol, 318.15 K	0.00893
in ethanol, 323.15 K	0.0103
in ethyl acetate, 283.15 K	0.00673
in ethyl acetate, 288.15 K	0.00688
in ethyl acetate, 293.15 K	0.00733
in ethyl acetate, 298.15 K	0.0079
in ethyl acetate, 303.15 K	0.00866
in ethyl acetate, 308.15 K	0.00931
in ethyl acetate, 313.15 K	0.0101
in ethyl acetate, 318.15 K	0.0111
in ethyl acetate, 323.15 K	0.0123
in isobutanol, 283.15 K	0.00112
in isobutanol, 288.15 K	0.00118
in isobutanol, 293.15 K	0.00147
in isobutanol, 298.15 K	0.0019
in isobutanol, 303.15 K	0.00222
in isobutanol, 308.15 K	0.00244
in isobutanol, 313.15 K	0.00294
in isobutanol, 318.15 K	0.00363
in isobutanol, 323.15 K	0.00458
in isopropanol, 283.15 K	0.00176
in isopropanol, 288.15 K	0.00206
in isopropanol, 293.15 K	0.00244
in isopropanol, 298.15 K	0.00309
in isopropanol, 303.15 K	0.00365
in isopropanol, 308.15 K	0.00469
in isopropanol, 313.15 K	0.00545
in isopropanol, 318.15 K	0.00642
in isopropanol, 323.15 K	0.00814
in methanol, 283.15 K	0.00434
in methanol, 283.16 K	0.0044
in methanol, 283.17 K	0.00446
in methanol, 283.18 K	0.00452
in methanol, 283.19 K	0.00458
in methanol, 288.15 K	0.00437
in methanol, 288.16 K	0.00443
in methanol, 288.17 K	0.00449
in methanol, 288.18 K	0.00455
in methyl acetate, 283.15 K	0.00812
in methyl acetate, 288.15 K	0.00881
in methyl acetate, 293.15 K	0.0097
in methyl acetate, 298.15 K	0.0102
in methyl acetate, 303.15 K	0.0112
in methyl acetate, 308.15 K	0.0126
in methyl acetate, 313.15 K	0.014
in methyl acetate, 318.15 K	0.0159
in methyl acetate, 323.15 K	0.0174
in n-butanol, 283.15 K	0.00247
in n-butanol, 288.15 K	0.00264
in n-butanol, 293.15 K	0.00297
in n-butanol, 298.15 K	0.0034
in n-butanol, 303.15 K	0.00417
in n-butanol, 308.15 K	0.0046
in n-butanol, 313.15 K	0.00552
in n-butanol, 318.15 K	0.00656
in n-butanol, 323.15 K	0.00807
in n-butyl acetate, 283.15 K	0.00381
in n-butyl acetate, 288.15 K	0.00396
in n-butyl acetate, 293.15 K	0.0042
in n-butyl acetate, 298.15 K	0.00449
in n-butyl acetate, 303.15 K	0.00481
in n-butyl acetate, 308.15 K	0.00533
in n-butyl acetate, 313.15 K	0.00581
in n-butyl acetate, 318.15 K	0.00636
in n-butyl acetate, 323.15 K	0.00743
in n-propanol, 283.15 K	0.00255
in n-propanol, 288.15 K	0.003
in n-propanol, 293.15 K	0.00336
in n-propanol, 298.15 K	0.00378
in n-propanol, 303.15 K	0.00422
in n-propanol, 308.15 K	0.0049
in n-propanol, 313.15 K	0.00587
in n-propanol, 318.15 K	0.00683
in n-propanol, 323.15 K	0.00825
in n-propyl acetate, 283.15 K	0.00437
in n-propyl acetate, 288.15 K	0.00461
in n-propyl acetate, 293.15 K	0.00506
in n-propyl acetate, 298.15 K	0.0055
in n-propyl acetate, 303.15 K	0.00595
in n-propyl acetate, 308.15 K	0.00658
in n-propyl acetate, 313.15 K	0.0071
in n-propyl acetate, 318.15 K	0.00793
in n-propyl acetate, 323.15 K	0.00903
